Test results reported in US9783536B2, “Nitrogen-containing heterocyclic compound or salt thereof” (FUJIFILM Corporation, priority 2013, dated 2017).
pIC50: −log10 of the molar value. Structures can show the parent of a compound that is named as a salt. Where two headings read alike, the source gives them in different places.

Assays:
human PI3Kα protein = biological target: T1, human PI3Kα protein (Homo sapiens, UniProt P42336); assay: PI3Kα enzyme assay (ADP-Glo); format: biochemical; details: read-out: PI3Kα enzyme inhibitory activity
T1 construct: purchased Carna Biosciences, Inc; host or cells: baculovirus expression system
T1 sequence (P42336 whole entry): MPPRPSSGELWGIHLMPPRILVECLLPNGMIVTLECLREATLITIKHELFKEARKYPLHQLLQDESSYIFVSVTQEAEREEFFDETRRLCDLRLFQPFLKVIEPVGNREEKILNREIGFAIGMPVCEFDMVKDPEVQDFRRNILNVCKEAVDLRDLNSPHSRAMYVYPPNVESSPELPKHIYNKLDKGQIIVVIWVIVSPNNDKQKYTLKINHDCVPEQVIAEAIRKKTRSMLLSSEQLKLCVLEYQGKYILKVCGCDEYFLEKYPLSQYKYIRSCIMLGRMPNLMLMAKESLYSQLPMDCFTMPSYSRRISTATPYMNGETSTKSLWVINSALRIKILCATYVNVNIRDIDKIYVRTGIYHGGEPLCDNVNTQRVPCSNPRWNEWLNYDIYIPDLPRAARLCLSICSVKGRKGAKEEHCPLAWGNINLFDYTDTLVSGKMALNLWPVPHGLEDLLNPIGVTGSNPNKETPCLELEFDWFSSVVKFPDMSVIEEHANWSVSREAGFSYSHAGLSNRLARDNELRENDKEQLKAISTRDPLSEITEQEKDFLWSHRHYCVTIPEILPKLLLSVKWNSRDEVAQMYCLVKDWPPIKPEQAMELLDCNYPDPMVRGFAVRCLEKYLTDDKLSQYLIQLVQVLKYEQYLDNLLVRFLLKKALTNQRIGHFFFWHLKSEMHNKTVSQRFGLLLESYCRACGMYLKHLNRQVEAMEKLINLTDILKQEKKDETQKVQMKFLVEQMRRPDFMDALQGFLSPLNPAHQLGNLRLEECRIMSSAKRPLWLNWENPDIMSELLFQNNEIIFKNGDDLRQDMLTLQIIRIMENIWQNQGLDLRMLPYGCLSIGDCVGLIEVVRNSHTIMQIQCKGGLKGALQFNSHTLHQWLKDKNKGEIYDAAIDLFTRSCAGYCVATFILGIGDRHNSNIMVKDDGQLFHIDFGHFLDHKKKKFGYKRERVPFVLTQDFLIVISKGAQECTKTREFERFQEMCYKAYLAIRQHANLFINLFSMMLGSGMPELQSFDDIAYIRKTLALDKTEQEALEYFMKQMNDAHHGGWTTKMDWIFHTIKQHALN
T1 sequence (P27986 whole entry partner): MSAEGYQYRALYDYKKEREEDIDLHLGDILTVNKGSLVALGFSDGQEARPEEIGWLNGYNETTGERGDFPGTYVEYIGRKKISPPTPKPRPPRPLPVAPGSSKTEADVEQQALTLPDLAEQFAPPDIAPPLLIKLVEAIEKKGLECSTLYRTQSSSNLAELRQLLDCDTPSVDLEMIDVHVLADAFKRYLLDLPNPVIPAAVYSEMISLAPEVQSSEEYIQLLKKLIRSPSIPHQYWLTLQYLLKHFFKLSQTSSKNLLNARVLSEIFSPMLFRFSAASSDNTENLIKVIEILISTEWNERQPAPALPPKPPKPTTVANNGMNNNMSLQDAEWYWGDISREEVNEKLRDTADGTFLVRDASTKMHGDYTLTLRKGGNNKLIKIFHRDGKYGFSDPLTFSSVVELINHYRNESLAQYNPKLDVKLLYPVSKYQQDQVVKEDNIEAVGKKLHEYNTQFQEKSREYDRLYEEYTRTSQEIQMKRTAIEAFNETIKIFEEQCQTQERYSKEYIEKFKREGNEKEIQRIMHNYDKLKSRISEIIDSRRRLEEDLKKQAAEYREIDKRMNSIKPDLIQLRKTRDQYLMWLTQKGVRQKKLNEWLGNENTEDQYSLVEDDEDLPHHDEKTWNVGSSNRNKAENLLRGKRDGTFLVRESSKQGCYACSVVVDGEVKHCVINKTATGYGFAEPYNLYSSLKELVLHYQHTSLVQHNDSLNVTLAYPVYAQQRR
Method in brief: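 Biotinylated human PI3Kα (baculovirus-expressed, 4.5 nmol/L) pre-incubated 15 min with compound in Tris-HCl pH 7.5, MgCl2, BSA; reaction 60 min at 25° C with 50 μmol/L PIP2 and 100 μmol/L ATP final. ADP quantified by ADP-Glo luminescence; IC50 calculated.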

[1] = biological target: T2, GST fusion human ERK2 protein (Homo sapiens, UniProt P28482); assay: ERK2 enzyme assay (1); format: biochemical; details: read-out: ERK2 enzyme inhibitory activity (1)
T2 construct: purchased Carna Biosciences, Inc; host or cells: E. coli expression system
T2 sequence (P28482 whole entry, the tested form may be a part): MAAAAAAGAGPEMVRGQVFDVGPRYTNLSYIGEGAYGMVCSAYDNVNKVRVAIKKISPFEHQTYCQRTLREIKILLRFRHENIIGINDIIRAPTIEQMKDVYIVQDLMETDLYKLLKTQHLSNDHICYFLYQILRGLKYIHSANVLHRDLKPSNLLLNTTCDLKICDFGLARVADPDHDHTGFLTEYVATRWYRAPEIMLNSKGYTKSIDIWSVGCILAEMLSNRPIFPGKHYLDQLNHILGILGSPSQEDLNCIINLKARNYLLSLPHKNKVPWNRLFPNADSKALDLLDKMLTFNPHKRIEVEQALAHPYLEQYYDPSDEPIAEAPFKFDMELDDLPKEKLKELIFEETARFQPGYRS
Protocol: In an ERK2 enzyme assay, GLUTATHIONE S-TRANSFERASE (GST) FUSION HUMAN ERK2 PROTEIN (manufactured by Carna Biosciences, Inc.), which was produced by using an E. coli expression system, was used.
12 μL of a reaction liquid (2.5 nmol/L ERK2, 100 mmol/L Hepes, 10 mmol/L MgCl2, 1.5 mmol/L DTT, 0.003% Brij35, pH 7.5) including ERK2 protein and a test compound having a predetermined concentration was allowed to stand at room temperature for 15 minutes. Then, 3 μL of a mixture liquid of FL-PEPTIDE8 (5-FAM-IPTSPITTTYFFFKKK-COOH) (manufactured by Caliper Life Sciences), which is substrate peptide, and ATP (manufactured by Sigma-Aldrich Co. LLC.) was added thereto such that the final concentrations thereof became 4.25 μmol/L and 43.1 μmol/L, respectively, and an enzyme reaction was performed by allowing to stand at 25° C. for 120 minutes.
After the reaction, the enzyme reaction was stopped by adding 30 μL of a reaction stopper liquid (100 mmol/L HEPES, 11.2 mmol/L EDTA, 5.6% Brij35, pH 7.5) including a 0.5% COATING REAGENT 8 (trade name, manufactured by Perkin Elmer Inc.) thereto. Then, phosphorylated peptide and non-phosphorylated peptide were separated using LABCHIP EZ READER (trade name, manufactured by Caliper Life Sciences), and the porportion of the phosphorylated peptide was quantified.
The inhibitory activities of the compounds were evaluated using IC50 (50% inhibitory concentration). The IC50 was calculated using XLFIT (trade name, manufactured by ID Business Solutions).

[2] = 4.5 nmol/L PI3Kα, PIP2 50 μmol/L, ATP 100 μmol/L
[3] = 2.5 nmol/L ERK2, ATP 43.1 μmol/L

pIC50 (human PI3Kα protein; [2])	pIC50 [1, 3]	pIC50 (human PI3Kα protein)	pIC50 ([1]; ERK2 enzyme assay (1))	SMILES
> 6.00	> 6.00			c1ncc(N2CCCCC2)cc1Nc1cnc2ccc(Nc3nnc(C4CCCC4)s3)nc2c1 [Example 0101]
5.00 to 6.00	5.00 to 6.00			COCc1csc(Nc2ccc3ncc(-c4cnn(C)c4)cc3n2)n1 [Example 0141]
5.00 to 6.00	5.00 to 6.00			Cn1cc(-c2cnc3ccc(Nc4cncs4)nc3c2)cn1 [Example 0199, N-(7-(1-methyl-1H-pyrazol-4-yl)-1,5-naphthyridin-2-yl)thiazole-5-amine]
> 6.00	> 6.00			CC(C)c1nnc(Nc2ccc3nccc(Nc4ccncn4)c3n2)s1 [Example 0007]
		> 6.00	> 6.00	c1nc2ccc(Nc3nnc(C4CCCCO4)s3)nc2cc1-c1cnn(CCCN2CCCC2)c1 (centres unmarked) [Example 0244, N-(7-(1-(3-(pyrrolidin-1-yl)propyl)-1H-pyrazol-4-yl)-1,5-naphthyridin-2-yl)-5-(tetrahydro-2H-pyran-2-yl)-1,3,4-thiadiazole-2-amine]
> 6.00	> 6.00			O=C(c1ccc(Nc2cnc3ccc(Nc4nnc(C5CCCC5)s4)nc3c2)cn1)N1CCOCC1 [Example 0106]
		> 6.00	> 6.00	Cc1cc(-c2cnc3ccc(Nc4cc(C(C)C)cnn4)nc3c2)ccn1 [Example 0229]
		> 6.00	> 6.00	CC(C)c1nnc(Nc2ccc3nccc(-c4cncnc4)c3n2)s1 [Example 0278, 5-isopropyl-N-(8-(pyrimidin-5-yl)-1,5-naphthyridin-2-yl)-1,3,4-thiadiazole-2-amine]
5.00 to 6.00	> 6.00			CC(C)Cc1cnc(Nc2ccc3ncc(-c4cnn(C)c4)cc3n2)s1 [Example 0143, 5-isobutyl-N-(7-(1-methyl-1H-pyrazol-4-yl)-1,5-naphthyridin-2-yl)thiazole-2-amine]
> 6.00	> 6.00			O=S(=O)(Nc1ccccc1)c1nnc(Nc2ccc3ncc(-c4cnn(CCN5CCOCC5)c4)cc3n2)s1 [Example 0188, 5-((7-(1-(2-morpholinoethyl)-1H-pyrazol-4-yl)-1,5-naphthyridin-2-yl)amino)-N-phenyl-1,3,4-thiadiazole-2-sulfonamide sodium salt]
5.00 to 6.00	> 6.00			c1cnc2ccc(Nc3nnc(C4CCCC4)s3)nc2c1 [Example 0043, 5-cyclopentyl-N-(1,5-naphthyridin-2-yl)-1,3,4-thiadiazole-2-amine hydrochloride]
> 6.00	> 6.00			Cn1cc(-c2cnc3ccc(Nc4nccs4)nc3c2)cn1 [Example 0029]
> 6.00	> 6.00			O=S(=O)(Nc1ccccc1)c1nnc(Nc2ccc3ncc(-c4cnn(CCN5CCNCC5)c4)cc3n2)s1 [Example 0181, N-phenyl-5-((7-(1-(2-(piperazin-1-yl)ethyl)-1H-pyrazol-4-yl)-1,5-naphthyridin-2-yl)amino)-1,3,4-thiadiazole-2-sulfonamide hydrochloride]
5.00 to 6.00	> 6.00			Cn1cc(-c2cnc3ccc(Nc4ccc(Cl)nn4)nc3c2)cn1 [Example 0152]
		> 6.00	> 6.00	c1n[nH]cc1Nc1cnc2ccc(Nc3nnc(C4CCCO4)s3)nc2c1 (centres unmarked) [Example 0228]
		> 6.00	> 6.00	CC(=O)OCC(C)(C)c1cnnc(Nc2ccc3ncc(-c4cnn(CCCN5CCCC5)c4)cc3n2)c1 [Example 0404, 2-Methyl-2-(6-((7-(1-(3-(pyrrolidin-1-yl)propyl)-1H-pyrazol-4-yl)-1,5-naphthyridin-2-yl)amino)pyridazin-4-yl)propyl acetate]
> 6.00	> 6.00			Cn1cc(-c2cnc3ccc(Nc4nnc(S(=O)(=O)NCc5ccccc5)s4)nc3c2)cn1 [Example 0192, N-benzyl-5-((7-(1-methyl-1H-pyrazol-4-yl)-1,5-naphthyridin-2-yl)amino)-1,3,4-thiadiazole-2-sulfonamide sodium salt]
5.00 to 6.00	> 6.00			CN1CCN(c2cnc3ccc(Nc4nnc(C5CCCC5)s4)nc3c2)CC1 [Example 0052]
		> 6.00	> 6.00	CC(C)c1cnnc(Nc2ccc3ncc(-c4cnn(CCc5ccncc5)c4)cc3n2)c1 [Example 0377]
5.00 to 6.00	> 6.00			CC(=O)N1CCN(c2cnc3ccc(Nc4nnc(C5CCCC5)s4)nc3c2)CC1 [Example 0048]

pIC50 (human PI3Kα protein; [2])	pIC50 [1, 3]	pIC50 (human PI3Kα protein)	pIC50 ([1]; ERK2 enzyme assay (1))	SMILES
		> 6.00	> 6.00	CCC(C)c1nnc(Nc2ccc3ncc(-c4cnn(CCCN5CCCC5)c4)cc3n2)s1 (centres unmarked) [Example 0263]
> 6.00	> 6.00			Cn1cc(-c2cnc3ccc(Nc4ncc[nH]4)nc3c2)cn1 [Example 0030, N-(1H-imidazol-2-yl)-7-(1-methyl-1H-pyrazol-4-yl)-1,5-naphthyridine-2-amine]
5.00 to 6.00	> 6.00			Cc1nnc(Nc2ccc3ncc(Nc4cn[nH]c4)cc3n2)s1 [Example 0182]
4.30 to 5.00	> 6.00			O=C1C=C(c2cnc3ccc(Nc4nnc(C5CCCC5)s4)nc3c2)CO1 [Example 0045, 4-(6-((5-cyclopentyl-1,3,4-thiadiazol-2-yl)amino)-1,5-naphthyridin-3-yl)furan-2(5H)-one hydrochloride]
5.00 to 6.00	> 6.00			CC(=O)N1CCC(Nc2cnc3ccc(Nc4nnc(C5CCCC5)s4)nc3c2)C1 (centres unmarked) [Example 0065]
5.00 to 6.00	> 6.00			Cc1cnnc(Nc2ccc3ncc(-c4cn[nH]c4)cc3n2)c1 [Example 0154]
5.00 to 6.00	> 6.00			CS(=O)(=O)N1CCC(Nc2cnc3ccc(Nc4nnc(C5CCCC5)s4)nc3c2)C1 (centres unmarked) [Example 0108]
4.30 to 5.00	5.00 to 6.00			Cn1cc(-c2cnc3ccc(Nc4cccnc4)nc3c2)cn1 [Example 0038]
5.00 to 6.00	> 6.00			CN(c1nnc(Nc2ccc3ncc(-c4cnn(C)c4)cc3n2)s1)S(=O)(=O)c1ccccc1 [Example 0190]
5.00 to 6.00	5.00 to 6.00			Cn1cc(-c2cnc3ccc(Nc4ccccn4)nc3c2)cn1 [Example 0036, 7-(1-methyl-1H-pyrazol-4-yl)-N-(pyridin-2-yl)-1,5-naphthyridine-2-amine]
		> 6.00	> 6.00	CCC1=C(OC)C(OC)=CC(Nc2cnc3ccc(Nc4nnc(C5CCCC5)s4)nc3c2)C1 (centres unmarked) [Example 0205]
> 6.00	> 6.00			Cn1cc(-c2cnc3ccc(Nc4nnc(NS(=O)(=O)c5ccccc5)s4)nc3c2)cn1 [Example 0177, N-(5-((7-(1-methyl-1H-pyrazol-4-yl)-1,5-naphthyridin-2-yl)amino)-1,3,4-thiadiazol-2-yl)benzene sulfonamide hydrochloride]
		5.00 to 6.00	> 6.00	CC(C)c1nnc(Nc2ccc3nccc(-c4ccccc4)c3n2)s1 [Example 0264, 5-isopropyl-N-(8-phenyl-1,5-naphthyridin-2-yl)-1,3,4-thiadiazole-2-amine]
		> 6.00	> 6.00	CC(O)c1nnc(Nc2ccc3ncc(-c4cnn(CCCN5CCCC5)c4)cc3n2)s1 (centres unmarked) [Example 0259]
> 6.00	> 6.00			Cn1cc(-c2cnc3ccc(Nc4nnc(S(=O)(=O)Nc5ccccc5)s4)nc3c2)cn1 [Example 0176, 5-((7-(1-methyl-1H-pyrazol-4-yl)-1,5-naphthyridin-2-yl)amino)-N-phenyl-1,3,4-thiadiazole-2-sulfonamide]
> 6.00	5.00 to 6.00			COc1cccc(Nc2ccnc3ccc(Nc4nnc(C(C)C)s4)nc23)c1 [Example 0012]
5.00 to 6.00	5.00 to 6.00			COc1ccc(-c2cnc3ccc(Nc4nccs4)nc3c2)cc1OC [Example 0023, N-(7-(3,4-dimethoxyphenyl)-1,5-naphthyridin-2-yl)thiazole-2-amine]
4.30 to 5.00	> 6.00			Oc1cnc2ccc(Nc3nnc(C4CCCC4)s3)nc2c1 [Example 0040, 6-((5-cyclopentyl-1,3,4-thiadiazol-2-yl)amino)-1,5-naphthyridin-3-ol hydrochloride]
> 6.00	> 6.00			CCc1nn(C)cc1-c1cnc2ccc(Nc3nnc(C4CCCC4)s3)nc2c1 [Example 0110, 5-cyclopentyl-N-(7-(3-ethyl-1-methyl-1H-pyrazol-4-yl)-1,5-naphthyridin-2-yl)-1,3,4-thiadiazole-2-amine]
> 6.00	> 6.00			O=C(Cc1ccc(Nc2cnc3ccc(Nc4nnc(C5CCCC5)s4)nc3c2)cc1)N1CCOCC1 [Example 0105]
